Experimental data taken from patent US7041303B2, “Use of moxonidine for postmyocardial infarction treatment” (Solvay Pharmaceuticals GmbH, priority 1999, dated 2006).

How the values were obtained:
[1] = system: Wistar rats with chronic myocardial infarction (MI); assay: Wistar rats with chronic myocardial infarction (coronary artery ligation): body weight, heart weight, heart rate, MAP, mortality; format: in vivo; conditions: for Heart rate: conscious infarct rats
Procedure: The following studies were performed on male Wistar rats (270 to 320 g, Harlan Zeist, Netherlands). The rats were kept in rooms with a 12 h light/dark cycle and had free access to standard rat diet and water. The animals underwent coronary artery ligation (MI rats) or sham operation without ligation (sham rats). After 24 hours the MI rats were randomized and implanted with osmotic minipumps (Alzet, Model 2001) in order to administer moxonidine in a dose of 3 or 6 mg/kg-day s.c. (subcutaneously) or only operated on without pump implant. The moxonidine treatment was continued up to the end of the experiment three weeks after the surgical procedure.
The left anterior descending coronary artery was ligated under pentobarbital anesthesia (60 mg/kg, i.p.). Brief description: after intubation of the trachea, an incision was made in the skin over the 4th intercostal space. The overlaying muscles were separated and kept aside. The animals were then placed on positive pressure ventilation (rate 65 to 70/min, stroke volume 3 ml) and the thoracic cavity was opened by cutting the intercostal muscles. The pericardium was opened. The heart was left in situ and a 6-0 silk suture was placed below the left coronary artery in the vicinity of the origin of the pulmonary artery. The suture was tightened. Sham rats were subjected to the same procedure but without actual ligation. The ribs were pulled together with 3-0 silk suture. The muscles were then returned to their original position and the skin was sutured.
The data obtained were expressed as group means ± SEM (standard error of the mean) unless otherwise stated. Only data of infarcted hearts with an infarct area covering the major portion of the free heart wall of the left ventricle were included in the evaluation since smaller infarct areas are usually fully compensated hemodynamically. The data were analyzed by one-way analysis of variance (ANOVA) followed by post-hoc Bonferroni analysis. Differences in the structural parameters in moxonidine treated and untreated infarcted hearts were determined by Student t-test independently for the two groups.
Four groups of rats were studied: 2 moxonidine-treated infarct rats (dosage 3 and 6 mg/kg·day), untreated infarct rats and sham-operated control rats (SHAM rats). Coronary artery ligation produced a main infarction in the free wall of the left ventricle. Total mortality of the experimental animals was 29% and was the same in both infarct groups. Data of five rats of the 6 mg/kg·day group had to be excluded since their infarct area was too small. The results of the tests are summarized in Table 1 for experiments with a dosage of 6 mg/kg·day and for a dosage of 3 mg/kg·day, and are explained in the following. The results shown in Table 1 comprise the data of groups of 7 to 14 rats with the exception of the collagen measurements, for which the data refer to groups of 6 to 7 rats.

[2] = system: Wistar rats with chronic myocardial infarction (MI); assay: Plasma noradrenaline (HPLC) and ANF (RIA) levels in MI rats; format: in vivo, rat; conditions: for Plasma NA (noradrenaline) level / Plasma ANF (atrial natriuretic factor): three weeks, mean ± SEM
Procedure: The following studies were performed on male Wistar rats (270 to 320 g, Harlan Zeist, Netherlands). The rats were kept in rooms with a 12 h light/dark cycle and had free access to standard rat diet and water. The animals underwent coronary artery ligation (MI rats) or sham operation without ligation (sham rats). After 24 hours the MI rats were randomized and implanted with osmotic minipumps (Alzet, Model 2001) in order to administer moxonidine in a dose of 3 or 6 mg/kg-day s.c. (subcutaneously) or only operated on without pump implant. The moxonidine treatment was continued up to the end of the experiment three weeks after the surgical procedure. The left anterior descending coronary artery was ligated under pentobarbital anesthesia (60 mg/kg, i.p.). Brief description: after intubation of the trachea, an incision was made in the skin over the 4th intercostal space. The overlaying muscles were separated and kept aside. […] The pericardium was opened. The heart was left in situ and a 6-0 silk suture was placed below the left coronary artery in the vicinity of the origin of the pulmonary artery. The suture was tightened. Sham rats were subjected to the same procedure but without actual ligation. The ribs were pulled together with 3-0 silk suture. The muscles were then returned to their original position and the skin was sutured. 19 days after the surgical procedure for coronary artery ligation the rats were again anesthetized with pentobarbital and a catheter (PE-10, heat-sealed with PE-50) was introduced through the femoral artery and placed in the abdominal aorta. The catheter was advanced subcutaneously as far as the animals' neck, where it was allowed to exit and was fixed and closed at the exit site. The rats were allowed a 2-day recovery period. On the day of sampling the catheter was lengthened with a heparin-treated, saline-filled tube and two 1-ml blood samples were collected after at least 60 minutes. Blood was collected in pre-cooled sample pots (syringes) prepared with 10 μl EDTA (0.1M). After centrifugation the plasma was collected in pre-cooled tubes containing either 1.2 mg glutathione or 10 μl aprotinin (100 KIU; KIU=kilo international units) in order to determine either catecholamines or atrial natriuretic factor (ANF). The tubes were stored at −80° C. The plasma concentrations of noradrenaline, adrenaline and dopamine were determined by HPLC, whereas the concentrations of ANF were analyzed using an RIA test. The data obtained were expressed as group means ± SEM (standard error of the mean) unless otherwise stated. Only data of infarcted hearts with an infarct area covering the major portion of the free heart wall of the left ventricle were included in the evaluation since smaller infarct areas are usually fully compensated hemodynamically. The data were analyzed by one-way analysis of variance (ANOVA) followed by post-hoc Bonferroni analysis. Differences in the structural parameters in moxonidine treated and untreated infarcted hearts were determined by Student t-test independently for the two groups.

[3] = system: Wistar rats with chronic myocardial infarction (MI); assay: Measurement of cardiac interstitial collagen (Sirius red) in MI rats; format: in vivo, rat; conditions: interventricular septum, infarct rats, three weeks, mean ± SEM
Procedure: The following studies were performed on male Wistar rats (270 to 320 g, Harlan Zeist, Netherlands). The rats were kept in rooms with a 12 h light/dark cycle and had free access to standard rat diet and water. The animals underwent coronary artery ligation (MI rats) or sham operation without ligation (sham rats). After 24 hours the MI rats were randomized and implanted with osmotic minipumps (Alzet, Model 2001) in order to administer moxonidine in a dose of 3 or 6 mg/kg-day s.c. (subcutaneously) or only operated on without pump implant. The moxonidine treatment was continued up to the end of the experiment three weeks after the surgical procedure. The left anterior descending coronary artery was ligated under pentobarbital anesthesia (60 mg/kg, i.p.). Brief description: after intubation of the trachea, an incision was made in the skin over the 4th intercostal space. […] The quantity of interstitial collagen was determined on 6 to 7 hearts randomly selected from each experimental group. […] The data obtained were expressed as group means ± SEM (standard error of the mean) unless otherwise stated. […] The data were analyzed by one-way analysis of variance (ANOVA) followed by post-hoc Bonferroni analysis. Differences in the structural parameters in moxonidine treated and untreated infarcted hearts were determined by Student t-test independently for the two groups.

[4] = infarct rats, moxonidine 3 mg/kg daily s.c., three weeks, mean ± SEM
[5] = infarct rats, moxonidine 6 mg/kg daily s.c., three weeks, mean ± SEM
[6] = infarct rats, moxonidine 6 mg/kg daily s.c.

COc1nc(C)nc(Cl)c1NC1=NCCN1 [moxonidine, 4-chloro-5-[(4,5-dihydro-1H-imidazol-2-yl)-amino]-6-methoxy-2-methyl-pyrimidine]
Heart rate ([1]; moxonidine 3 mg/kg daily s.c., three weeks, mean ± SEM): 334 ± 12 beats/min
Heart rate ([1]; moxonidine 6 mg/kg daily s.c., three weeks, mean ± SEM): 321 ± 6 beats/min
Heart weight [1, 4]: 1408 ± 104 mg
Heart/Body weight ratio [1, 4]: 4.7 ± 0.4
MAP (mean arterial pressure) [1, 4]: 87 ± 3 mmHg
Heart weight [1, 5]: 1076 ± 24 mg
MAP (mean arterial pressure) [1, 5]: 100 ± 5 mmHg
Heart rate measured in conscious animals (in words) ([1]; moxonidine-treated infarct rats versus sham rats): slowing of cardiac activity (bradycardia) compared to the sham rats
Body weight (in words) ([1]; moxonidine-treated infarct rats versus untreated infarct rats and sham rats): slightly lower body weight than the untreated infarct rats
Cardiac weight (in words) ([1]; moxonidine-treated infarct rats versus untreated infarct rats, dosage depending 3 to 6 mg/kg·day): significantly lower than the cardiac weight of untreated infarct rats
Total mortality of the experimental animals ([1]; the same in both infarct groups (treated and untreated)): 29%
Plasma noradrenaline levels (in words) ([2]; infarct rats, 3 mg/kg·day group): clearly reduced
Plasma noradrenaline levels (in words) ([2]; infarct rats, 6 mg/kg·day group, versus sham rats): almost half the values of the sham rats
Plasma NA (noradrenaline) level ([2]; infarct rats, moxonidine 3 mg/kg daily s.c.): 345 ± 108 pg/mL
Plasma ANF (atrial natriuretic factor) ([2]; infarct rats, moxonidine 3 mg/kg daily s.c., n-3): (54 ± 2, n-3) pg/ml
Plasma ANF (atrial natriuretic factor) [2, 6]: 61 ± 8 pg/mL
Plasma NA (noradrenaline) level [2, 6]: 96 ± 20 pg/mL
Plasma ANF levels (in words) ([2]; moxonidine-treated infarct rats versus untreated infarct rats): unchanged compared to those of untreated infarct rats
Plasma noradrenaline levels (in words) ([2]; moxonidine-treated infarct rats, dose not stated, versus sham rats): about half the value found for the sham rats
Interstitial Collagen ([3]; moxonidine 3 mg/kg daily s.c.): 2.4 ± 0.2 %
Interstitial Collagen ([3]; moxonidine 6 mg/kg daily s.c.): 1.4 ± 0.1%
